Experimental data published in patent US20060269950A1, “Method of identifying compounds that modulate interaction of androgen receptor with beta-catenin” (Wyeth, priority 2005, published 2006).

Legend:
[1] = biological target: T1, progesterone receptor (PR) interaction with β-catenin (Homo sapiens, UniProt P06401); assay: One-hybrid GAL4-β-catenin luciferase reporter assay in CV-1 cells with PR expression plasmid; type: cell-based; conditions: 10 nM, 18 hours
T1 construct: expressed in transfected cells; host or cells: CV-1 cells
T1 sequence (P06401 1-933): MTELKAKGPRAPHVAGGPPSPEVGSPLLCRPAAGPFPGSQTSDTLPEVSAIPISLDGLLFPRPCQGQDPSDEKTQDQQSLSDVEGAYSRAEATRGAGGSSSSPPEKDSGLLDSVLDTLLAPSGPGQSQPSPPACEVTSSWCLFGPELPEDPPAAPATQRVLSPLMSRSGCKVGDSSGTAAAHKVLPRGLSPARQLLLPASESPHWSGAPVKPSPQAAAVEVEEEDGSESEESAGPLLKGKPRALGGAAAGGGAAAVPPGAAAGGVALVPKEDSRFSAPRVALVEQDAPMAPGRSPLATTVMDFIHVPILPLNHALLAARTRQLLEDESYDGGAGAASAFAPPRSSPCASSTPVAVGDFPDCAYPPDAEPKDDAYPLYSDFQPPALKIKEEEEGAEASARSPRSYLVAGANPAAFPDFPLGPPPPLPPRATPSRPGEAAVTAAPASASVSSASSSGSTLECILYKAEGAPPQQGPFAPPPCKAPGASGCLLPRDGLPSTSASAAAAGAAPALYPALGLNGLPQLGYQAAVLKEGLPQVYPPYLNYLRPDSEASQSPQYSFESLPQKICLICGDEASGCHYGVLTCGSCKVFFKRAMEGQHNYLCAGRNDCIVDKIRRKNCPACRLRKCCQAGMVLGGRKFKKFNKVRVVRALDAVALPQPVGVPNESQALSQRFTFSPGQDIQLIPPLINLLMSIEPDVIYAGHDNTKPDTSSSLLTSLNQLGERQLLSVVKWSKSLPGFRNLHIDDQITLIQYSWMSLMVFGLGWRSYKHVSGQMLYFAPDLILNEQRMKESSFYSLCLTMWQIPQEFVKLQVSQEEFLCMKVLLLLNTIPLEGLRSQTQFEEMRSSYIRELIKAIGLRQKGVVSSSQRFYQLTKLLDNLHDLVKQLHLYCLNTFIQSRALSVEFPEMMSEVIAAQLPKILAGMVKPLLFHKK
Description: (§1) CV-1 cells were cultured on 96 well plates and transfected after 24 hours with the expression and reporter plasmids using the lipofectamine procedure (Invitrogen). In this procedure, the three different plasmid constructs used were mixed in cell culture media and lipofectamine and incubated for 15 minutes according to the manufacturer's instructions (Invitrogen). The plasmid-lipofectamine mixture was diluted in culture medium, added to cells, and incubated for 4 hours. The cells were rinsed and then treated with culture media. Twenty-four hours after transfection, the cells were treated with androgen agonists and antagonists or vehicle. After 18 hours, cell lysates were harvested and assayed for luciferase activity using luciferase reagent (Promega) and a luminometer (Wallac). Other known transfection techniques can be used including, for example, calcium phosphate precipitation transfection technique.
(§2) CV-1 cells were transfected with the 5XGAL4-luciferase reporter and the GAL4-O-catenin expression plasmid in the absence of a nuclear receptor expression vector (−), with the AR, PR, or ER expression plasmid. […] Cell lysates were harvested and analyzed for luciferase activity.

[2] = system: estrogen receptor (ER) interaction with β-catenin; assay: One-hybrid GAL4-β-catenin luciferase reporter assay in CV-1 cells with ER expression plasmid; type: cell-based; conditions: 10 nM, 18 hours
Description: as §1, §2

[3] = biological target: T2, interaction between AR and β-catenin (Mus musculus, UniProt P19091); assay: Co-immunoprecipitation of β-catenin followed by Western analysis for AR in L929 cells; conditions: 300 nM (30-fold excess) in presence of 10 nM DHT, 17 hours
T2 sequence (P19091 1-899): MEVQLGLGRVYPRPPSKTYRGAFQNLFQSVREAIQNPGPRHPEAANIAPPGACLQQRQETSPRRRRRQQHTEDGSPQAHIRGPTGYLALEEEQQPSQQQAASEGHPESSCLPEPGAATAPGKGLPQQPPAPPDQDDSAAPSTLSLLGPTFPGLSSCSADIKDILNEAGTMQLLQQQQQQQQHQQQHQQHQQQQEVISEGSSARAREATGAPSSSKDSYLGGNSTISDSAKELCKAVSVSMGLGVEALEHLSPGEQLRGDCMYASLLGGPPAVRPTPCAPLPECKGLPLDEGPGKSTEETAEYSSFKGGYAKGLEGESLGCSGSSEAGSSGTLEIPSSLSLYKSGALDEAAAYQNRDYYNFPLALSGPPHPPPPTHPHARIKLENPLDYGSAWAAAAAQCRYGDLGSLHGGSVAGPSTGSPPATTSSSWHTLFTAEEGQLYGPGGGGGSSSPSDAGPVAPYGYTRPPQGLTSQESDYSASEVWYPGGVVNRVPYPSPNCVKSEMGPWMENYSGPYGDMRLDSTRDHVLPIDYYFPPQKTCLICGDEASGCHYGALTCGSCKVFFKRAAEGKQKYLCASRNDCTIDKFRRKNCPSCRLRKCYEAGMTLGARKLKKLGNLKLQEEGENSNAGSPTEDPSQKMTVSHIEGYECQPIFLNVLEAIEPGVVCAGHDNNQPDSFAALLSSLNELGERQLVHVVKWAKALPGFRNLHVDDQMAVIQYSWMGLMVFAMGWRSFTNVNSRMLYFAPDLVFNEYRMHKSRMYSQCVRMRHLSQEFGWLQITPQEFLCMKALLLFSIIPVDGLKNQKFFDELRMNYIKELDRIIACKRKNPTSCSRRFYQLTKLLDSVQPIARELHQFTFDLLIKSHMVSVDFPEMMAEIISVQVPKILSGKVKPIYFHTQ
Description: Cell lysates were harvested, precleared with protein A/G sepharose, and β-catenin was immunoprecipitated using a goat polyclonal IgG against β-catenin conjugated to agarose (Santa Cruz Biotechnology). The immunoprecipitates were analyzed by polyacrylamide gel electrophoresis followed by Western analysis for AR and β-catenin (β-cat) as indicated using antibodies from Santa Cruz (FIG. 2).

[4] = biological target: T3, interaction between AR and β-catenin (Homo sapiens, UniProt P10275); assay: One-hybrid GAL4-β-catenin/AR luciferase reporter assay in CV-1 cells; type: cell-based, African green monkey; conditions: AR expressing CV-1 cells, 10 nM, 18 hours
T3 construct: The AR expression vector is human full length AR cDNA in pcDNA3; expressed in transfected cells; host or cells: CV-1 cells
T3 sequence (P10275 1-920): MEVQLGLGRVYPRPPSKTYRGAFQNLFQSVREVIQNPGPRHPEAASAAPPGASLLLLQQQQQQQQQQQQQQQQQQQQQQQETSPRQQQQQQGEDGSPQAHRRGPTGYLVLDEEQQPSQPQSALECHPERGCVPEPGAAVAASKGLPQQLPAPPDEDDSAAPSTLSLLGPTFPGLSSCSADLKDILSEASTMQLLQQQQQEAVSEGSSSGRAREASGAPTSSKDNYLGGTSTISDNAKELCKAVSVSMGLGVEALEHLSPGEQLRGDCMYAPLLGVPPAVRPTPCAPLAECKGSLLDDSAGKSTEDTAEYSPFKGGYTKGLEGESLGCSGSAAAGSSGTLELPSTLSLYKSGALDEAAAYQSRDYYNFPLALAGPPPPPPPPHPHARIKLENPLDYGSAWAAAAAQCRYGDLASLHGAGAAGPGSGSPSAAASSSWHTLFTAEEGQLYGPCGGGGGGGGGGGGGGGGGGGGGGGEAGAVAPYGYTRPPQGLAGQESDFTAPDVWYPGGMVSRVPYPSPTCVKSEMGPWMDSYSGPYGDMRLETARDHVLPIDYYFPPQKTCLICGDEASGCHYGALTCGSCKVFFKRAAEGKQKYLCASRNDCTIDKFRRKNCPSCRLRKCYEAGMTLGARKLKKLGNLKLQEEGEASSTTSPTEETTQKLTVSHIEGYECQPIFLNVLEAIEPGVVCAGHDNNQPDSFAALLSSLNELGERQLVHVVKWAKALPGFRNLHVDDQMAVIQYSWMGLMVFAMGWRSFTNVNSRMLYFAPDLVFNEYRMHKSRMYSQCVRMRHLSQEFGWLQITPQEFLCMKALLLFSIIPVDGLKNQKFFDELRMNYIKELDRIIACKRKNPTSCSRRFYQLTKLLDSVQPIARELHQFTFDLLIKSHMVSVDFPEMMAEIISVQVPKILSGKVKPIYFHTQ
Description: as §1
(§3) Cell lysates were harvested and analyzed for luciferase activity.
as §2, §3

| SMILES | activity in the one-hybrid assay (reporter activity) [1] | activity in the one-hybrid assay (reporter activity) [2] | effect on DHT-stimulated AR/β-catenin protein-protein interaction [3] | reporter (luciferase) activity [4] |
| --- | --- | --- | --- | --- |
| C[C@]12CC[C@@H]3c4ccc(O)cc4CC[C@H]3[C@@H]1CC[C@@H]2O [17β-estradiol] | no activity | no activity |  |  |
| C[C@]12CCC(=O)C[C@@H]1CC[C@@H]1[C@@H]2CC[C@]2(C)[C@@H](O)CC[C@@H]12 [DHT, dihydrotestosterone] | no activity | no activity |  |  |
| CC(C)(O)C(=O)Nc1ccc([N+](=O)[O-])c(C(F)(F)F)c1 [hydroxyflutamide] |  |  | attenuated |  |
| C[C@H](O)C(=O)[C@@]1(C)CC[C@H]2[C@@H]3CCC4=CC(=O)CCC4=C3CC[C@@]21C [trimegestone] | no activity | no activity |  | not |
